In a melting point compilation (Tetko et al.; mined from patent text by program, amines drawn as free bases though some values may be those of a salt):

melting point [°C]	SMILES
107	Cc1ccc(C(OS(C)(=O)=O)(C(F)(F)F)C(F)(F)F)cc1C(OS(C)(=O)=O)(C(F)(F)F)C(F)(F)F
> 300	COCCn1cc2c(C3C(=O)Nc4ccc(Br)cc43)nc(NCC(C)O)nc2n1 (configuration not stated)
160 to 162	C[C@H]1CC[C@H]2C(C)(C)[C@H](OS(=O)(=O)c3ccccc3)CC[C@]23Oc2c(c(O)cc4c2CNC4=O)C[C@]13C
101 to 102	O=C1CCC2=C(CCc3cc(F)ccc32)N1Cc1ccccc1
229 to 230	O=C(CSc1cccc(Br)c1)c1ccc2[nH]c3ncc(Cl)cc3c2c1
161 to 163	O=C(O)C1Cc2[nH]c3ccc(OCc4ccccc4)cc3c2C1 (configuration not stated)
249 to 251	Cn1c(-c2ccncc2)n[nH]c1=O
237 to 239	CCc1c(C(=O)O)c(C(F)F)nc(C(F)(F)F)c1C(=O)O
> 300	N#Cc1cc(F)c2ncc(C(=O)NCc3ccc(Cl)cc3)c(O)c2c1
116 to 118	Fc1ccc(C(CCCN2CCN(c3cc4ccccc4cn3)CC2)c2ccc(F)cc2)cc1
100 to 102	O=c1oc(-c2ccccc2Cl)nn1-c1ccccc1C(F)(F)F
135 to 138	O=C(c1ccccc1)N1CCN(Cc2ccccc2)CCN1C(=O)c1ccccc1
213	CNC(=S)Nc1ccc(C2=NNC(=O)CC2C)cc1 (configuration not stated)
258	CNCC1=C(C#N)C(c2cccc(C#N)c2Br)c2c[nH]nc2N1 (configuration not stated)
186 to 188	Cn1cnnc1Sc1nc(-c2ccc(Cl)cc2)c(CCC(=O)O)o1
172	CC(C)(C)C(=O)Nc1ccc(F)c(Oc2ccc(C3CC(=O)NC(=O)C3)cc2)c1F
109	Cc1cc(OC(F)(F)C(Cl)Cl)c([N+](=O)[O-])cc1S(=O)(=O)C=CC#N
131 to 136	CCC(C(C)=CC(CNC(=O)c1nc[nH]n1)=NO)[N+](=O)[O-] (configuration not stated)
53 to 56	CC(C)(NC(=O)C(CS)Cc1ccccc1)C(=O)OCc1ccccc1 (configuration not stated)
256 to 258	CC1CC(=O)NN=C1c1ccc(NC(=O)c2cccs2)cc1 (configuration not stated)
227 to 229	O=C1Nc2cccnc2N(C(=O)CN2CCN(CCN3CCOCC3)CC2)c2ccccc21
170 to 171	Cc1c(O)c(=O)ccn1CC(C)C
110 to 112	NC(=O)CN1C(=O)C[C@@H]2CCCCCC[C@@H]21 (relative stereo)
205 to 207	CCOC(=O)c1ccc(COc2cccc3nc(C(=O)NCc4cccc(OC)c4)[nH]c(=O)c23)cc1

melting point [°C]	SMILES
105 to 106	C=CCNC(=O)c1ccccc1I
262 to 263	COc1cc(Nc2c(C#N)cnc3cc(-c4cccc(C=O)c4)sc23)c(Cl)cc1Cl
190 to 192	COc1ccc(NC(=O)OC(C)(C)C)c(C(=O)NCCc2ccc(N=C(N)c3cccs3)cc2)c1
122 to 124	O=C1CCCC(Cl)=C1C(=O)c1ccc(Cl)c(OCCn2cnnn2)c1Cl
106 to 112	C[Si](C)(C)C#Cc1cnn(-c2ccnc3cc(Cl)ccc23)c1
95 to 97	COc1ccc2cc(C(C)C(=O)ON3CCCCC3)ccc2c1 (configuration not stated)
160 to 162	CCOC(=O)[C@H]1CCC(=O)[C@@H](n2nc(-c3c(-c4ccccc4)nn4ccccc34)ccc2=O)C1 (relative stereo)
> 250	NC(=O)Nc1ncc(-c2ccncc2)cn1
117 to 118	CN(C(=O)c1ccc2nonc2c1)C1CC=C(F)CC1 (configuration not stated)
84 to 89	O=[N+]([O-])c1ccccc1NCC(F)(F)F
107 to 108	CC(O)=C1C(=O)CC(c2cc(Cl)sc2Cl)CC1=O (configuration not stated)
64	CC(C)C1NCC(=O)N1CC(N)=O (configuration not stated)
60	Cc1c(C=O)cc2c(c1C)OCC2
138 to 140	CNC(=O)[C@@H](NC(=O)[C@@H](CC(=O)O)n1ccc(-c2ccc(C#N)cc2)c1)C(C)(C)C
250 to 252	O=C(NC(Cc1ccc(OCc2ccccc2F)cc1)C(=O)O)c1cn2ccc(-c3ccc(Cl)cc3)cc2n1 (configuration not stated)
201 to 202	CN(c1cccc2cc(-c3nccs3)[nH]c12)S(=O)(=O)c1cccs1
118 to 122	CC(C)c1cccc(C(C)C)c1NC(=O)[C@H](C)N
213 to 214	O=S1(=O)N=C(NC2(CO)CCCC2)Nc2cc(Cl)sc21
56	CCCCCCCCCCCC(=O)Oc1c(C(=O)c2ccc(Cl)cc2Cl)c(C)nn1C
254 to 255	Cn1nnc2c1C(=O)C(Cl)=C(Cl)C2=O
188 to 189	COc1nc(C)nc2c1-c1ccc(Cl)cc1C(c1ccccc1F)=NC2
72 to 97	O=C(Cc1ccc(O)cc1)NC1CCN(Cc2ccc(Cl)c(Cl)c2)CC1
65 to 70	CCN1CC(=O)N(C)c2cc(Nc3ncc(Cl)c(Nc4ccc(OC)c(CNCCO)c4)n3)c(OC)cc2C1
123 to 126	CC(C)C(N)=NC(=Nc1ccccc1)N1CCOCC1

melting point [°C]	SMILES
64	BrCC1(c2ccc3ccccc3c2)OCCO1
134	COc1cc(C(CBr)(OC)OC)ccc1OS(=O)(=O)c1ccccc1
124 to 126	Cc1cccc(NC(=O)CN2CCN(c3ncccc3C#N)CC2)c1C
146 to 148	COC(=O)c1ccc([N+](=O)[O-])cc1NC(=O)c1ccc(C(C)(C)C)cc1
114 to 115	Cc1cc(C(=O)CC(O)(c2cc(Cl)cc(Cl)c2)C(F)(F)F)ccc1C(=O)O (configuration not stated)
148 to 151	CC(C=NO)n1nnc2ccc(Oc3cc(F)c(C(F)(F)F)c(Cl)c3)cc21 (configuration not stated)
137 to 141	COc1ccc(N2CCN(c3c(C)c(C)c4c(c3C)CC(C)(C)O4)CC2)cc1C
227 to 229	CNC1=NS(=O)(=O)N=C1NCCSCc1csc(N(C)C)n1
186	Cc1nc2ccccc2c(=O)n1CCN1CCC(Nc2nc3ccccc3n2Cc2ccc(F)cc2)CC1
161 to 162	COc1ccc(C2Sc3ccccc3N(CCN(C)C)C(=O)C2OC(=O)c2ccccc2[N+](=O)[O-])cc1 (configuration not stated)
52 to 53	CN(C)C(=O)NCCCCC1CCSS1 (configuration not stated)
145	O=C(Nc1ccccc1OCCCBr)c1cccc2[nH]ccc12
95 to 96	COc1ccc2c(c1CC=C(C)C)OC(c1ccc(O)cc1O)CC2 (configuration not stated)
138 to 139	CCOC(=O)c1cnc2n(c1=O)C(C)CCC2=NNc1ccccc1 (configuration not stated)
118 to 119	Cc1c(NC(=O)CC(C)(C)C)cc2c(c1C)OC(C)(C)C2(O)c1ccc(Br)cc1 (configuration not stated)
142 to 146	Cc1cccc(NC(=O)NC2N=C(C(C)C)c3cccc(C)c3N(CC(=O)C3CCCCC3)C2=O)c1 (configuration not stated)
193 to 194	Nc1cc(C(F)(F)F)ccc1-c1cc(Oc2ccc3cccnc3c2)ncn1
290	O=c1[nH]c2c3ccccc3c(=CO)c2n2ccnc12
146 to 149	COC(=O)C[C@@H](SCc1ccccc1)C(N)=O
> 300	Cn1nnnc1-c1cnc2cc(Br)ccc2c1O
83.5 to 84	CS(=O)(=O)N[C@@H](CCCCNC(=O)OCc1ccccc1)C(=O)O
104 to 106	O=C(O)/C=C/C(=O)c1ccoc1
> 350	COC(=O)Oc1cc2c(c(O)c1C)C(=O)c1c(OC)c3c(c(O)c1C2=O)-c1c(cc2cnn(-c4ccccc4)c(=O)c2c1O)CC3
200	O=C(CCC(F)(F)F)N[C@H]1CC[C@H](CCN2CCC(c3cccc4c3CCO4)CC2)CC1

melting point [°C]	SMILES
> 250	O=C(COCc1cc(Br)cc2[nH]c(=O)c(=O)[nH]c12)Nc1ccccc1
103 to 105	CCOCc1oc(-c2ccc(C(F)(F)F)cc2)cc1C(=O)OCC
204 to 207	Clc1ccc(Nc2cncc(-n3ncc4ccccc43)n2)cc1
148 to 150	CCOC(=O)c1cn(C2CC2)c2nc(N3CC(C)C(N)C3)c(F)cc2c1=O (configuration not stated)
124 to 125	c1cn(CCCc2ccc(OCc3coc(-c4ccc(OCc5ccc6c(c5)OCO6)cc4)n3)cc2)cn1
186 to 187	Nc1ccc(C(=O)c2ccccn2)cc1[N+](=O)[O-]
267 to 269	S=C(Nc1ccccc1)N1CCN(c2nc3cccccc-3n2)CC1
86 to 87	O=C(O)[C@@H](CSCc1ccccc1)N1C(=O)C=CC1=O
224 to 226	Cc1cc(NC(=O)NC(=O)c2ccccc2Cl)cc(C)c1Oc1ccc(Cl)c2c1CCCC2
146 to 147	O=C(O)CCC(=O)Cc1ccc2c(c1)Cc1cccnc1O2
230 to 232	O=C(NC1CCN(Cc2ccccc2)CC1)c1ccc(Nc2c(C(=O)NC3CCN(Cc4ccccc4)CC3)cnc3cc(Cl)ccc23)cc1
178 to 180	CCCCc1cn(CCCC)c(=O)n1Cc1ccc(-c2ncccc2-c2nnn[nH]2)cc1
161 to 162	CCOC(=O)CC(=NNc1ccc(C(=O)O)cc1C)C(C)=O
192 to 194	Cc1cc(=O)n2nc(S(=O)(=O)Cc3ccc(Cl)cc3)sc2n1
144 to 145	COc1cc(OCC(CO)CO)c(-c2cccs2)cc1C=O
139 to 140	CCc1ccc(OC(CC)C(=O)OC2CC(O)C=C3C=CC(C)C(CCC4CC(O)CC(=O)O4)C32)cc1 (mixture of isomers)
150 to 151	C[C@@H](n1ccnn1)[C@](O)(Cn1ccnc1)c1ccc(F)cc1F
> 220	Oc1cc2c(cc1O)-c1cc3cc(O)c(O)cc3nc1CC2
75 to 81	CS(=O)(=O)c1ccc(-c2cnn(CC(F)(F)F)c(=O)c2C2=CCCCC2)cc1
187 to 188	COc1ccc(C(=O)Nc2ccccc2)cc1NS(=O)(=O)c1cccc2cccnc12
132 to 134	CCOC(=O)Cc1c([N+](=O)[O-])cc([N+](=O)[O-])c2ccccc12
76 to 78	COc1ccc(Sc2ccccc2CCl)cc1
118 to 121	C#CCN1N=C(c2ccc(OC)c(OC)c2)[C@@H]2CCCC[C@@H]2C1=O (relative stereo)

SMILES	melting point [°C]
CCN1CCC(O)(c2ccc(F)c(Cl)c2)C1 (configuration not stated)	157 to 158
Cc1ccccc1NC(=O)NC1N=C(c2ccccc2F)c2ccccc2N(CC(=O)N2CC3CCC(CC3)C2)C1=O (racemic)	167 to 172
